Where two headings read alike, the source gives them in different places.
Key:
[1] = tested on: human colorectal adenocarcinoma cell line DLD-1; test: WST-8 antiproliferative assay, DLD-1; type: cell-based
Protocol: (§1) Compounds 7a–j, 8a–j, 9a–c, and 10a–c were evaluated for in vitro anticancer activities against five different cancer cell lines, namely, human colorectal adenocarcinoma cell lines DLD-1, human cervical cancer cell line Hela, human pancreatic cancer cell line SUIT-2, human myelogenous leukemia cell line K562, and human hepatocellular carcinoma cell line HepG2 using WST-8 assay at concentrations of 100 µM to investigate the growth inhibition percent (GI%) of each compound using daunorubicin as a reference drug. […]. […] So, as a conclusion on the SAR study of those compounds as antiproliferative agents, the oxime moiety potentiated the anticancer activity and electron donating groups on R1 and R2 played an important role on this activity. Moreover, the sulfamoyl moiety on R3 seems to play a potential role in the activity of the prepared compounds (Table 1).
(§2) All selected compounds and daunorubicin were recorded as the minimum concentration required to inhibit half cell growth (IC50) and the results are listed in Table 2.
(§3) Evaluation of anticancer activity was performed according to the standard water-soluble tetrazolium-8 (WST-8) assay at the Faculty of Engineering, Yamagata University, Yonezawa, Japan, using an MTP-310 absorbance microplate reader. The EGFR inhibitory assay was carried out at the Faculty of Engineering, Yamagata University, Yonezawa, Japan, according to the protocol enzyme linked immunosorbent assay (ELISA) kits (Douset sandwich ELISA test, recombinant mouse EGFR). The JNK-2 inhibitory assay was performed at the Faculty of Engineering, Yamagata University, Yonezawa, Japan, according to the protocol of enzyme-linked immunosorbent assay (ELISA), the assay was carried out using the JNK-2 kit (Simple Step ELISA, pT183/Y185, Abcam Company, Cambridge, CB2 0AX, UK). Apoptosis and cell cycle analysis was performed at Faculty of medicine, Yamagata University, Yamagata, Japan, using BD FACS melody. Molecular docking was performed at the Nano Medical Engineering Laboratory, RIKEN Cluster for Pioneering Researchers, RIEKN, Japan, using ICM-Pro 3.8 software (MolSoft L.L.C., San Diego, CA, USA).
(§4) According to the standard water-soluble tetrazolium-8 (WST-8) assay, the current synthesized compounds have been tested for their anticancer activities against different five cancer cell lines; DLD-1, Hela, K562, SUIT-2, and HepG2 and daunorubicin was used as reference drug by the WST-8 assay. The five cells were maintained in a suspension culture, (Dulbecco’s modified eagle medium (DMEM) for SUIT-2, Hela, and HepG2 or PRIM for K562 and DLD), supplemented with 5% FBS (Fetal Bovine Serum) containing 1% of a penicillin-streptomycin (1:1) mixture. A 100 μL aliquot of cells (10,000 cells/mL) was added to a 96 well plate and incubated for 24 h at 37 °C in a humidified incubator containing 5% CO2 in the air. After 24 h, a 10 μL aliquot of test compound (concentrations varying in the range of 10–150 µM) was added to each of the 96 wells and incubated for 24 h. Then A 10 μL WST-8 solution (mixture of WST-8 and 1-methoxy PMS) was added to each well and the incubation continued for 3 h. The visible absorbance at 450 nm and 630 nm as the reference wavelength of each well was quantified using an MTP-310 absorbance microplate reader. Daunorubicin was used as a positive control. The results of cytotoxicity were recorded as growth inhibition percentages and as IC50 values.

[2] = tested on: human cervical cancer cell line Hela; test: WST-8 antiproliferative assay, Hela; type: cell-based; conditions: for inhibition at 100 µM: read-out: Growth Inhibition (GI%) Hela; for IC50: read-out: IC50 Hela
Protocol: as §1, §2, §3
as §4, with “After 24 h, a 10 μL aliquot of test compound (concentrations varying in the range of 10–150 µM) was added to each of the 96 wells and incubated for 24 h.” left out

[3] = tested on: human myelogenous leukemia cell line K562; test: WST-8 antiproliferative assay, K562; type: cell-based
Protocol: as §1, §2, §3
as §4, with “After 24 h, a 10 μL aliquot of test compound (concentrations varying in the range of 10–150 µM) was added to each of the 96 wells and incubated for 24 h.” left out

[4] = tested on: human pancreatic cancer cell line SUIT-2; test: WST-8 antiproliferative assay, SUIT-2; type: cell-based
Protocol: as §1, §2, §3, §4

[5] = tested on: human hepatocellular carcinoma cell line HepG2; test: WST-8 antiproliferative assay, HepG2; type: cell-based
Protocol: as §1, §2, §3, §4

[6] = tested on: human colorectal adenocarcinoma cell line DLD-1; test: WST-8 antiproliferative assay, DLD-1; type: cell-based; conditions: WST-8 assay, six concentrations 1-100 µM
[7] = tested on: human pancreatic cancer cell line SUIT-2; test: WST-8 antiproliferative assay, SUIT-2; type: cell-based; conditions: WST-8 assay, six concentrations 1-100 µM
[8] = tested on: human hepatocellular carcinoma cell line HepG2; test: WST-8 antiproliferative assay, HepG2; type: cell-based; conditions: WST-8 assay, six concentrations 1-100 µM
EGFR tyrosine kinase = target: EGFR tyrosine kinase; design: method as in doi:10.21608/jabps.2021.77469.1129, PMID 24731281; conditions: literature values ref [4],[29]; read-out: EGFR tyrosine kinase inhibitory activity IC50; cited from earlier work
[9] = tested on: PC12 (rat adrenal-derived pheochromocytoma cells); test: WST-8 cytotoxicity towards normal cell line PC12; type: cell-based; conditions: Rattus norvegicus, PC-12, read-out: percentage growth inhibition PC12
Protocol: The evaluation of normal cell viability is fundamental in analyzing the efficacy of target compounds and is often used in conjunction with cytotoxicity tests to help understand how target compound toxicity affects normal cell health. […] A 100 μL aliquot of cells (10,000 cells/mL) was added to a 96 well plate and incubated for 24 h at 37 °C in a humidified incubator containing 5% CO2 in the air. […] Then, a 10 μL WST-8 solution (mixture of WST-8 and 1-methoxy PMS) was added to each well and the incubation continued for 3 h. The visible absorbance at 450 nm and 630 nm as the reference wavelength of each well was quantified using an MTP-310 absorbance microplate reader. Daunorubicin was used as a positive control. The results of cytotoxicity were recorded as growth inhibition percentages and as IC50 values.

[10] = DLD-1, 100 µM, WST-8 assay, read-out: Growth Inhibition (GI%) DLD-1
[11] = Homo sapiens, K562, 100 µM, WST-8 assay, read-out: Growth Inhibition (GI%) K562
[12] = SUIT-2, 100 µM, WST-8 assay, read-out: Growth Inhibition (GI%) SUIT-2
[13] = HepG2, 100 µM, WST-8 assay, read-out: Growth Inhibition (GI%) HepG2

| melting point [°C] | IC50 [6] [µM] | IC50 [7] [µM] | SMILES | inhibition at 100 µM [1, 10] [%] | inhibition at 100 µM ([2]; 100 µM, WST-8 assay) [%] | inhibition at 100 µM [3, 11] [%] | inhibition at 100 µM [4, 12] [%] | inhibition at 100 µM [5, 13] [%] | IC50 (EGFR tyrosine kinase) [nM] | also measured |
| --- | --- | --- | --- | --- | --- | --- | --- | --- | --- | --- |
| 110 to 112 | 13 | 45 | COc1cc(C(C)=O)ccc1OC(=O)c1cc(-c2ccc(C)cc2)n(-c2ccccc2)n1 [Compound 7b, 4–Acetyl–2–methoxyphenyl–1–phenyl 5–p–tolyl–1H–pyrazole–3–carboxylate] | 81 | 83 | 70 | 103 | 85 | – | IC50 ([2]; WST-8 assay, six concentrations 1-100 µM): 55 µM; IC50 [8]: 45 µM |
| 83 to 85 | 13 | 31 | COc1cc(C(C)=O)ccc1OC(=O)c1cc(-c2ccc(C)cc2)n(-c2ccc(S(N)(=O)=O)cc2)n1 [Compound 7g, 4–Acetyl–2–methoxyphenyl–1–(4–sulfamoylphenyl) 5–p–tolyl–1H–pyrazole–3–carboxylate] | 96.7 | 30 | 77 | 92 | 66 | – | – |
| – | – | – | COc1ccc(-c2cc(-c3ccc(C)c(C)c3)nn2C(N)=S)cc1 [Compound I] | – | – | – | – | – | 70 | – |
| – | – | – | COc1cccc2c1C(=O)c1c(O)c3c(c(O)c1C2=O)C[C@@](O)(C(C)=O)C[C@@H]3O[C@H]1C[C@H](N)[C@H](O)[C@H](C)O1 [Daunorubicin, daunorubicin, reference compound] | – | – | – | – | – | – | inhibition at 100 µM ([1]; DLD-1, read-out: Growth Inhibition (GI%) DLD-1): 82.5%; IC50 ([1]; DLD-1, read-out: IC50 DLD-1): 30 µM; inhibition at 100 µM [2]: 100%; IC50 [2]: 0.097 µM; inhibition at 100 µM ([3]; Homo sapiens, K562, read-out: Growth Inhibition (GI%) K562): 100%; IC50 ([3]; Homo sapiens, K562, read-out: IC50 K562, WST-8 assay, six concentrations 1-100 µM): 13 µM; IC50 ([3]; read-out: IC50 K562, WST-8 assay, six concentrations 1-100 µM): 13.3 µM; inhibition at 100 µM ([4]; SUIT-2, read-out: Growth Inhibition (GI%) SUIT-2): 92%; IC50 ([4]; SUIT-2, read-out: IC50 SUIT-2): 9 µM; inhibition at 100 µM ([5]; HepG2, read-out: Growth Inhibition (GI%) HepG2): 100%; IC50 ([5]; HepG2, read-out: IC50 HepG2): 22 µM; inhibition at 1 µM [9]: 81%; inhibition at 50 µM [9]: 107%; inhibition at 100 µM [9]: 113% |
| – | – | – | Cc1ccc(-c2cc(-c3ccc4ccccc4c3)n(C3=NC(=O)CS3)n2)cc1C [II] | – | – | – | – | – | 60 | – |

— article PMC10537604, “Development and Assessment of 1,5–Diarylpyrazole/Oxime Hybrids Targeting EGFR and JNK–2 as Antiproliferative Agents: A Comprehensive Study through Synthesis, Molecular Docking, and Evaluation” (Molecules, 2023)
